What was measured:
Assay type in all cases: in vivo
[1] = tested on: Beet Armyworm (Spodoptera exigua); assay: Bioassay on Beet Armyworm (BAW), 128-well diet tray assay; conditions: Spodoptera exigua, 168 h; percent mortality of second instar larvae, 50 μg/cm^2 on artificial diet, five to seven days, 25° C.; read-out: BAW Rating
[2] = tested on: Green Peach Aphid (Myzus persicae); assay: Bioassay on Green Peach Aphid (GPA), foliar spray on cabbage seedlings; conditions: Myzus persicae, 72 h, read-out: GPA Rating; for pest or weed control at 200 µg/mL: foliar, Table 5, Prophetic Compounds Subsequently Exemplified
Description: Certain molecules disclosed in this document were tested against GPA using procedures described in the following example. In the reporting of the results, the “GPA Rating Table” was used (See Table Section). Cabbage seedlings grown in 3-inch pots, with 2-3 small (3-5 cm) true leaves, were used as test substrate. The seedlings were infested with 20-50 GPA (wingless adult and nymph stages) one day prior to chemical application. Four pots with individual seedlings were used for each treatment. Test compounds (2 mg) were dissolved in 2 mL of acetone/MeOH (1:1) solvent, forming stock solutions of 1000 ppm test compound. The stock solutions were diluted 5× with 0.025% Tween 20 in water to obtain the solution at 200 ppm test compound. A hand-held aspirator-type sprayer was used for spraying a solution to both sides of […] leaves until runoff. Reference plants (solvent check) were sprayed with the diluent only containing 20% by volume of acetone/MeOH (1:1) solvent. Treated plants were held in a holding room for three days at approximately 25° C. and ambient relative humidity (RH) prior to grading. Evaluation was conducted by counting the number of live aphids per plant under a microscope. Percent Control was measured by using Abbott's correction formula (W. S. Abbott, “A Method of Computing the Effectiveness of an Insecticide” J. Econ. Entomol. 18 (1925), pp. 265-267) as follows. Corrected % Control=100*(X−Y)/X • where • X=No. of live aphids on solvent check plants and • Y=No. of live aphids on treated plants The results are indicated in the tables entitled “Table 3: Assay Results Part 1” and “Table 4: Assay Results Part 2” (See Table Section).

[3] = tested on: Cabbage Looper (Trichoplusia ni); assay: Bioassay on Cabbage Looper (CL), 128-well diet tray assay; conditions: 168 h, percent mortality of second instar larvae, 50 μg/cm^2 on artificial diet, five to seven days, 25° C., read-out: CL Rating
Description: Certain molecules disclosed in this document were tested against BAW, CEW and CL using procedures described in the following examples. In the reporting of the results, the “BAW & CEW & CL Rating Table” was used (See Table Section).
Bioassays on CL (Trichoplusia ni)
Bioassays on CL were conducted using a 128-well diet tray assay. One to five second instar CL larvae were placed in each well (3 mL) of the diet tray that had been previously filled with 1 mL of artificial diet to which 50 μg/cm^2 of the test compound (dissolved in 50 μL of 90:10 acetone-water mixture) had been applied (to each of eight wells) and then allowed to dry. Trays were covered with a clear self-adhesive cover, and held at 25° C., 14:10 light-dark for five to seven days. Percent mortality was recorded for the larvae in each well; activity in the eight wells was then averaged.
“Table 4: Assay Results Part 2” (See Table Section).

Row | Compound | pest or weed control at 50 µg/cm2, 50 µg/cm2 [1] [%] | pest or weed control at 200 ppm ([2]; corrected % control (Abbott), 200 ppm foliar spray on cabbage seedlings, three days) [%] | pest or weed control at 50 µg/cm2, 50 µg/cm2 [3] [%] | pest or weed control at 200 µg/mL [2] [%]
1 | CC(C)(NC(=O)c1ccc(/C=C/C(c2cc(Cl)c(Cl)c(Cl)c2)C(F)(F)F)cc1Br)C(=O)NCC(F)(F)F (stereo not drawn) [Compound F1, (E)-2-Bromo-N-(2-methyl-1-oxo-1-((2,2,2-trifluoroethyl)amino)propan-2-yl)-4-(4,4,4-trifluoro-3-(3,4,5-trichlorophenyl)but-1-en-1-yl)benzamide] | 50 to 100 | 0 to 80 | 50 to 100 | 
2 | CCC(NC(=O)c1ccc(/C=C/C(c2cc(Cl)c(Cl)c(Cl)c2)C(F)(F)F)cc1Br)C(=O)NCC(F)(F)F (stereo not drawn) [Compound F8A] | 50 to 100 |  | 50 to 100 | 
3 | CC[C@H](NC(=O)c1ccc(/C=C/C(c2cc(Cl)c(Cl)c(Cl)c2)C(F)(F)F)cc1Br)C(=O)NCC(F)(F)F (stereo partly drawn) [Compound F8] | 50 to 100 |  | 50 to 100 | 
4 | Cc1cc(/C=C/C(c2cc(Cl)c(Cl)c(Cl)c2)C(F)(F)F)ccc1C(=O)N[C@@H](C)C(=O)NCC(F)(F)F (stereo partly drawn) [Compound F9] | 50 to 100 |  | 50 to 100 | 
5 | C[C@@H](NC(=O)c1ccc(/C=C/C(c2cc(C(F)(F)F)cc(C(F)(F)F)c2)C(F)(F)F)cc1Br)C(=O)NCC(F)(F)F (stereo partly drawn) [Compound F14] | 50 to 100 |  | 50 to 100 | 
6 | CCC(NC(=O)c1ccc(/C=C/C(c2cc(Cl)c(Cl)c(Cl)c2)C(F)(F)F)cc1C)C(=O)NCC(F)(F)F (stereo not drawn) [Compound F15A] | 50 to 100 |  | 50 to 100 | 
7 | CC[C@H](NC(=O)c1ccc(/C=C/C(c2cc(Cl)c(Cl)c(Cl)c2)C(F)(F)F)cc1C)C(=O)NCC(F)(F)F (stereo partly drawn) [Compound F15] | 50 to 100 |  | 50 to 100 | 
8 | CCC(NC(=O)c1ccc(/C=C/C(c2cc(Cl)c(Cl)c(Cl)c2)C(F)(F)F)cc1C(F)(F)F)C(=O)NCC(F)(F)F (stereo not drawn) [Compound F16A] | 50 to 100 |  | 50 to 100 | 
9 | CC[C@H](NC(=O)c1ccc(/C=C/C(c2cc(Cl)c(Cl)c(Cl)c2)C(F)(F)F)cc1C(F)(F)F)C(=O)NCC(F)(F)F (stereo partly drawn) [Compound F16] | 50 to 100 |  | 50 to 100 | 
10 | Cc1cc(/C=C/C(c2cc(Br)cc(Br)c2)C(F)(F)F)ccc1C(=O)N[C@H](C)C(=O)NCC(F)(F)F (stereo partly drawn) [Compound F17] | 50 to 100 |  | 50 to 100 | 
11 | C[C@H](NC(=O)c1ccc(/C=C/C(c2cc(Cl)c(Cl)c(Cl)c2)C(F)(F)F)cc1C(F)(F)F)C(=O)NCC(F)(F)F (stereo partly drawn) [Compound F18] | 50 to 100 |  | 50 to 100 | 
12 | C[C@@H](NC(=O)c1ccc(/C=C/C(c2cc(Br)cc(Br)c2)C(F)(F)F)cc1Br)C(=O)NCC(F)(F)F (stereo partly drawn) [Compound F19] | 50 to 100 |  | 50 to 100 | 
13 | C[C@@H](NC(=O)c1ccc(/C=C/[C@@H](c2cc(Cl)c(Cl)c(Cl)c2)C(F)(F)F)cc1C(F)(F)F)C(=O)NCC(F)(F)F [Compound F20B, N—((R)-1-Oxo-1-((2,2,2-trifluoroethyl)amino)propan-2-yl)-4-((E)-4,4,4-trifluoro-3-(3,4,5-trichlorophenyl)but-1-en-1-yl)-2-(trifluoromethyl)benzamide] | 50 to 100 |  | 50 to 100 | 
14 | C[C@@H](NC(=O)c1ccc(/C=C\C(c2cc(Cl)c(Cl)c(Cl)c2)C(F)(F)F)cc1C(F)(F)F)C(=O)NCC(F)(F)F (stereo partly drawn) [Compound F20C] | 50 to 100 |  | 50 to 100 | 
15 | C[C@@H](NC(=O)c1ccc(/C=C/C(c2cc(Br)cc(Br)c2)C(F)(F)F)cc1C(F)(F)F)C(=O)NCC(F)(F)F (stereo partly drawn) [Compound F21] | 50 to 100 |  | 50 to 100 | 
16 | C[C@@H](NC(=O)c1ccc(/C=C/C(c2cccc(C(F)(F)F)c2)C(F)(F)F)cc1Br)C(=O)NCC(F)(F)F (stereo partly drawn) [Compound F22] | 50 to 100 |  | 50 to 100 | 

Row | Compound | pest or weed control at 50 µg/cm2, 50 µg/cm2 [1] [%] | pest or weed control at 200 ppm ([2]; corrected % control (Abbott), 200 ppm foliar spray on cabbage seedlings, three days) [%] | pest or weed control at 50 µg/cm2, 50 µg/cm2 [3] [%] | pest or weed control at 200 µg/mL [2] [%]
17 | CCC(NC(=O)c1ccc(/C=C/C(c2cc(Cl)c(Cl)c(Cl)c2)C(F)(F)F)cc1Cl)C(=O)NCC(F)(F)F (stereo not drawn) [Compound F23A] | 50 to 100 |  | 50 to 100 | 
18 | C[C@@H](NC(=O)c1ccc(/C=C/C(c2cc(F)cc(C(F)(F)F)c2)C(F)(F)F)cc1Br)C(=O)NCC(F)(F)F (stereo partly drawn) [Compound F24] | 50 to 100 |  | 50 to 100 | 
19 | C[C@@H](NC(=O)c1ccc(/C=C/C(c2cc(Cl)c(Cl)c(Cl)c2)C(F)(F)F)cc1Cl)C(=O)NCC(F)(F)F (stereo partly drawn) [Compound F25] | 50 to 100 |  | 50 to 100 | 
20 | Cc1cc(/C=C/C(c2cc(Cl)c(Cl)c(Cl)c2)C(F)(F)F)ccc1C(=O)N[C@H](C)C(=S)NCC(F)(F)F (stereo partly drawn) [Compound F26] | 50 to 100 |  | 50 to 100 | 
21 | C[C@@H](NC(=O)c1ccc(/C=C/C(c2cc(Cl)c(Cl)c(Cl)c2)C(F)(F)F)cc1Br)C(=S)NCC(F)(F)F (stereo partly drawn) [Compound F27] | 50 to 100 |  | 50 to 100 | 
22 | C[C@@H](NC(=O)c1ccc(/C=C/C(c2cc(Cl)c(Cl)c(Cl)c2)C(F)(F)F)cc1C(F)(F)F)C(=S)NCC(F)(F)F (stereo partly drawn) [Compound F28] | 50 to 100 |  | 50 to 100 | 
23 | Cc1cc(/C=C/C(c2cc(Cl)c(Cl)c(Cl)c2)C(F)(F)F)ccc1C(=O)NC(C)(C)C(=S)NCC(F)(F)F (stereo not drawn) [Compound F29] | 50 to 100 |  | 50 to 100 | 
24 | C[C@@H](NC(=O)c1ccc(/C=C/C(c2cc(Cl)c(Cl)c(Cl)c2)C(F)(F)F)cc1Cl)C(=S)NCC(F)(F)F (stereo partly drawn) [Compound F30] | 50 to 100 |  | 50 to 100 | 
25 | Cc1cc(/C=C/C(c2cc(Cl)c(Cl)c(Cl)c2)C(F)(F)F)ccc1C(=S)NC(C)(C)C(=S)NCC(F)(F)F (stereo not drawn) [Compound F31, (E)-2-Methyl-N-(2-methyl-1-thioxo-1-(2,2,2-trifluoroethylamino)propan-2-yl)-4-(4,4,4-trifluoro-3-(3,4,5-trichlorophenyl)but-1-enyl)benzothioamide] | 50 to 100 |  | 50 to 100 | 
26 | C[C@@H](NC(=O)c1ccc(/C=C/C(c2cc(F)cc(Br)c2)C(F)(F)F)cc1Br)C(=O)NCC(F)(F)F (stereo partly drawn) [Compound P298] |  |  |  | 0 to 80
27 | O=C(CNC(=O)c1ccc(/C=C/C(c2cc(Cl)cc(C(F)(F)F)c2)C(F)(F)F)cc1Br)NCC(F)(F)F (stereo not drawn) [Compound P1411] |  |  |  | 0 to 80
28 | O=C(CNC(=O)c1ccc(/C=C/C(c2cc(Cl)c(Cl)c(Cl)c2)C(F)(F)F)cc1C(F)(F)F)NCC(F)F (stereo not drawn) [Compound P1566] |  |  |  | 80 to 100
29 | C[C@@H](NC(=O)c1ccc(/C=C/C(c2cc(Cl)c(Cl)c(Cl)c2)C(F)(F)C(F)(F)F)cc1C(F)(F)F)C(=O)NCC(F)(F)F (stereo partly drawn) [Compound P1601] |  |  |  | 0 to 80
30 | CCNC(=O)[C@@H](C)NC(=O)c1ccc(/C=C/C(c2cc(Cl)c(Cl)c(Cl)c2)C(F)(F)F)cc1C (stereo partly drawn) [Compound P1624] |  |  |  | 80 to 100
31 | CC(NC(=O)c1ccc(/C=C/C(c2cc(Cl)c(Cl)c(Cl)c2)C(F)(F)F)cc1Br)C(=O)NCCC(F)(F)F (stereo not drawn) [Compound P1631A] |  |  |  | 0 to 80

Reference: patent US9226500B2, “Pesticidal compositions and processes related thereto” (Dow AgroSciences LLC, priority 2012, dated 2016)
